What all share (type): physicochemical
The nature of data set [1]: Stability of dapivirine under extrusion conditions (heating with LC/MS and NMR, DSC, extraction). As to the method:
A series of experiments were conducted to confirm that dapivirine was stable in PU matrix in the extrusion process. First, the thermal stability of dapivirine at the extrusion temperature was examined and analyzed for its non-degradability as follows: dapivirine was heated at 185° C. isothermally for 2 h under air atmosphere and ^1H and ^13C NMR spectra were recorded (Mercury 400 MHz spectrometer, Varian) for the heated and unheated dapivirine. Furthermore, LC/MS analysis was performed on the heated sample and compared to non-heated controls. The MS instrumentation consisted of Micromass Quattro II Triple Quadruple Mass Spectrometer, Waters, Milford, Mass.
Second, a differential scanning calorimetric (DSC) scan was obtained on dapivirine from 25° C. to 230° C. at a heating rate of 10° C./min under air atmosphere with a flow rate of 40 mL/min (Model DSC821e, Mettler Toledo, Columbus, Ohio). To further confirm the stability of dapivirine in the presence of PU under extrusion conditions, DSC analyses were carried out for PU, dapivirine, and PU films loaded with dapivirine at a concentration of 200 mg/g. The high concentration of dapivirine was selected to enable detection of potential exothermic degradation peaks. The DSC spectrum was collected from 25° C. to 230° C. at the heating rate of 10° C./min as well as at an isothermal condition (175° C. for 10 minutes).
Finally, dapivirine was extracted and quantified from extruded rods and PU pellets (both SC and MM) prior to extrusion. The test samples (100 mg of ring segments or pellets) were dissolved in 2 mL of chloroform in a 50 mL centrifuge tube in triplicate followed by precipitation of the PU by addition of 25 mL of methanol using a volumetric flask. The polymer was separated by centrifugation (1600 RCF, 5 min) and the supernatant was quantified for dapivirine content by HPLC. The caps of the centrifuge tubes were closed tightly and wrapped with Teflon tape during the process to minimize evaporation. The efficiency of the extraction of dapivirine from the PU matrix using this method was determined by quantifying the extracted dapivirine content from controls of blank PU pellets (100 mg) to which known amount of dapivirine was added. The three controls used in triplicate were 1) 100 mg of PU pellets with 2 mg of dapivirine 2) 100 mg of PU pellets with 1 mg of dapivirine and 3) 100 mg of PU pellets with 0.25 mg of dapivirine. The mixtures of PU pellets and dapivirine were then subjected to the same precipitation process and dapivirine quantification as above. A linear calibration curve generated from standards of dapivirine in isopropanol (i-prOH) was utilized for quantification of dapivirine content from extracted samples.

Data set [2] in a line: In vitro release of dapivirine from PU-SC rods in 25:75 i-prOH:water. As to the method: The release profile of dapivirine was measured from PU-SC rods for a month after which the release kinetics from rings was evaluated for two weeks to determine the correlation of drug release rate from rods to that from rings. This may enable use of rods in place of rings for release kinetics evaluation thereby minimizing the scale of materials such as ring materials, quantity of drugs and volume of sink solutions required for release studies in case of monolithic IVRs. About 2 cm length segments were cut from the solid cross-sectional dapivirine loaded PU SC rods. The dimensions (length and diameter) and weight of each segment were recorded. […] HPLC analyses were performed every 2 to 5 days and the cumulative release was calculated by integrating the area under the curve using Kaleidagraph software (Synergy Software, Reading, Pa.). […] At the end of 30 days, the segments were wiped dry and the masses and dimensions of the segments were recorded. Similarly, dapivirine release kinetics were measured from rings (20 mg/g SC, 2.5 mg/g SC, 20 mg/g MM and 2.5 mg/g MM) incubated with 50 mL of 25:75 v/v i-prOH:water mixture as sink condition in 125 mL Erlenmeyer flasks with rubber septa […].
At the end of each release study, the swelling ratio was calculated by using the following equation […]

The nature of data set [3]: In vitro release of dapivirine from PU rings (SC and MM) in 25:75 i-prOH:water. As to conditions: for average release rate: rings, two weeks. As to the method:
The release profile of dapivirine was measured from PU-SC rods for a month after which the release kinetics from rings was evaluated for two weeks to determine the correlation of drug release rate from rods to that from rings. This may enable use of rods in place of rings for release kinetics evaluation thereby minimizing the scale of materials such as ring materials, quantity of drugs and volume of sink solutions required for release studies in case of monolithic IVRs. About 2 cm length segments were cut from the solid cross-sectional dapivirine loaded PU SC rods. The dimensions (length and diameter) and weight of each segment were recorded. The segments were incubated with 5 mL 25:75 v/v i-prOH:water as the sink condition in 20 mL septa covered vials at 37° C. in a water bath shaker set at 64±2 rpm. The sink was replaced with fresh co-solvent every 24±0.5 h for 30 days. HPLC analyses were performed every 2 to 5 days and the cumulative release was calculated by integrating the area under the curve using Kaleidagraph software (Synergy Software, Reading, Pa.). The release study for each loading was performed on triplicate samples. At the end of 30 days, the segments were wiped dry and the masses and dimensions of the segments were recorded. Similarly, dapivirine release kinetics were measured from rings (20 mg/g SC, 2.5 mg/g SC, 20 mg/g MM and 2.5 mg/g MM) incubated with 50 mL of 25:75 v/v i-prOH:water mixture as sink condition in 125 mL Erlenmeyer flasks with rubber septa […].
At the end of each release study, the swelling ratio was calculated by using the following equation
[formula] • where • Q=swelling ratio • Mi=mass of ring or rod segments before the release study • Mf=mass ring or rod segments after the release study

The nature of data set [4]: In vitro release of dapivirine from PU rods into liposome dispersions. As to conditions: 5 mg/g PU rods. Here is the method:
It is believed that vaginally delivered lipophilic NNRTI's partition into the lipid bilayer of vaginal epithelial cells.^14,21 Therefore, additional release studies were performed using 100 nm liposome dispersions in pH 4.2 and pH 7.6 buffers as biorelevant sink conditions for 1 week. These pH conditions cover the pH range observed vaginally. Liposome dispersions were synthesized by dissolving egg PC in CHCl3 followed by solvent removal under vacuum. The dried egg PC cake was dispersed in either pH 4.2 (25 mM acetate buffer containing 0.02% sodium azide and osmolarity adjusted to 310 mOsm/kg with NaCl) or pH 7.6 (25 mM phosphate buffer containing 0.02% sodium azide and osmolarity adjusted to 310 mOsm/kg with NaCl) followed by extrusion through a 100 nm membrane (LiposoFast™, Avestin, Ottawa, Canada). The concentration of liposome was 10 mg/mL. Prior to conducting the release study, liposome dispersions were characterized for particle size and zeta potential in a Zetasizer (nano ZS90, Malvern Instruments, Malvern Worcestershire, UK). A third sink condition for comparison was 25:75 v/v i-prOH:water. Approximately 0.5 mm length segments of dapivirine loaded (5 mg/g) PU rods were incubated with 0.5 mL of sink solution in 37° C. water bath shaking at 64±2 rpm. Controls used were dapivirine loaded PU rods suspended with pH 4.2 and pH 7.6 buffers without liposomes and blank PU (no dapivirine) segments in liposome dispersions in pH 4.2 and pH 7.6 buffers. Sinks were replaced and quantified for dapivirine content at frequent time points. HPLC quantification of release in sink samples of liposome dispersions was performed after 1:1 dilution with i-prOH to disrupt the dispersion.

Structures are written as SMILES.

On to `Cc1cc(C)c(Nc2ccnc(Nc3ccc(C#N)cc3)n2)c(C)c1` [dapivirine, 4-[[4-[(2,4,6-trimethylphenyl)amino]pyrimidin-2-yl]amino]benzonitrile], for which, in data set [1] (25° C. to 230° C., 10° C./min, air), the “degradation in DSC thermogram of dapivirine” value is given as “no detectable degradation”. For the same compound, in data set [1] (185° C. isothermally for 2 h under air), the “degradation of dapivirine (LC/MS and NMR, heated vs non-heated)” value is “no detectable degradation”. Moreover, in data set [1] (PU films loaded with 200 mg/g, ramp 25 to 230° C. and isothermal 175° C., extrusion 165 to 175° C.), the “degradation of dapivirine in PU under extrusion conditions (DSC)” value is “no detectable degradation”. Further, the “dapivirine content recovered from extruded rods vs SC or MM pellets prior to extrusion” value in data set [1] (extraction, HPLC, p value>0.05, unpaired t-test) is given as “not significantly different”. Further, the “solubility of dapivirine in PU matrix” value in data set [1] (from absence of the 220° C. melting endotherm in DSC of PU films loaded at 200 mg/g) is over 200 mg/g. Further, the “release kinetics (order)” value in data set [2] (all loadings (2.5-20 mg/g), 25:75 i-prOH:water, 37° C., one month) is given as “zero order release kinetics”. Further, the loaded dapivirine released entry in data set [2] (at the end of 30 days) is recorded as “about 20%”. In addition, the “average flux from rings (SC) higher than from rods (SC)” value in data set [3] (2.5 mg/g SC) is listed as 18%; in data set [3] (20 mg/g SC) it was 12%. In addition, in data set [3] (p>0.05, unpaired two tailed t-test), the “release kinetics of SC rings vs MM rings” value was “no significant difference”. Also, the “release rate (order)” value in data set [3] (rings SC and MM, 25:75 i-prOH:water, 37° C.) is reported as “zero order release rate”. The average release rate turned out to be 64 ± 1 µg/day in data set [3] (2.5 mg/g dapivirine loading, 25:75 i-prOH:water, 37° C.) and 473 ± 36 µg/day in data set [3] (20 mg/g dapivirine loading, 25:75 i-prOH:water, 37° C.). Besides, the “cumulative release over time” value in data set [4] (liposome dispersions, one week) is on record as “linear relationship with time”. In data set [4] (pH 4.2 and pH 7.6 buffers without liposomes), the “dapivirine release in buffer controls” value is listed as “below the detection limit”. Moreover, the “release kinetics relative to 25:75 i-prOH:water sink (slopes of linear fits)” value in data set [4] (pH 4.2 liposome dispersion) is 22 times; in data set [4] (pH 7.6 liposome dispersion), 1.5 times.

The values are drawn from patent US20110045076A1, “LINEAR ORDER RELEASE POLYMER” (priority 2008, published 2011).
